{"source": "patent US9688708B2", "about": "“Photolabile compounds” (The Trustees of Columbia University In The City of New York, priority 2003, dated 2017)", "key": {"[1]": {"test_system": "mouse cortical neuron", "assay": "Whole-cell patch-clamp of mouse cortical neuron, perfusion of TzGly", "assay_type": "cell-based", "settings": "1 μM", "text": "FIGS. 13A and 13B: FIG. 13A depicts the structure of TzGly. […] The measurement results were obtained by the whole-cell patch-clamp method, as known and used in the art."}, "[2]": {"test_system": "Retzius (Rz) cells in the ganglion", "assay": "Intracellular voltage recording of leech ganglion neuron with Xe flash irradiation", "assay_type": "cell-based, Hirudo medicinalis", "settings": "for action potential activity on addition to saline, before irradiation: ~100 μM in saline, no light flash; for action potential activity after light flash: pulsed Xe lamp flash, UV removed by band-pass filter at 500 nm", "description": "Hirudo medicinalis has a central nerve cord with several ganglia, each one containing about 400 neurons arranged in a known pattern. (W.-R. Schlue et al., 1980, J. Exp. Biol., 82:23-34). An entire ganglion was mounted on a dish. The transmembrane potential for a single cell (a neuron) in the ganglion was recorded by inserting inside the neuron a glass micropipet with a micrometer-sized end, filled with saturated aqueous KCl that acts as a luggin bridge for an Ag/AgCl electrode. Another Ag/AgCl electrode was used as a reference. The signal was taken with an AM-System 1600 amplifier, and the entire setup was covered with a Faraday cage. A 12 bit A/D acquisition card was used to digitize the data using an ad-hoc program written in QuickBasic.\nLow Ca^2+-high Mg^2+ saline solution (NaCl, 102 mM; KCl, 4 mM; CaCl2: 1 mM; and MgCl2: 10 mM; Tris base, pH 5.4 adjusted to 7.4) was perfused through the dish. […] A pulsed Xe lamp located under the dish was used to irradiate the solution. UV light was removed using a band-pass filter at 500 nm.\nAfter impaling the cell with an electrode, many experiments were performed on the same cell to ensure reproducibility. […] 300 seconds later, at 5500 s, a light flash was directed to the ganglion."}, "[3]": {"assay": "Cyclic voltammetry in water, RuIII/RuII redox potential", "assay_type": "physicochemical", "settings": "measured in water", "description": "The supporting electrolyte was KNO3 (1 M). dE/dt=100 mV/s in glassy carbon electrode.\n(§1) UV-vis spectra in water were obtained with an HP 8453 diode array spectrophotometer. RMN ^1H spectra were obtained using a Bruker 500 MHz equipment. CV measurements were performed with a PAR 273A potentiostat. Irradiation was effected by means of a pulsed Xe lamp, (pulse energy ˜0.5 J), with a low-pass filter at 480 nm. Irradiation using a 473 nm DPSS laser gave similar results.\n(§2) (See, e.g., E. S. Dodsworth et al., 1986, Chem. Phys. Lett., 124:152-158). The photoactivity of these compounds has been explained in terms of a reaction pathway that involves the transition between the MLCT state to a lower-energy d-d state, which promotes ligand release. There is a direct correspondence between the energy of the MLCT transition and the quantum yield of the photoreaction. For [Ru(bpy)2(4AP)CH3CN]^2+, the photoreaction yield is about φPR=0.4. Since [Ru(bpy)2(4AP)2]Cl2 presents a red-shifted band, a lower photoreaction yield is expected. An estimate based on early experiments leads to an estimate of φPR≅0.02 at 473 nm."}, "[4]": {"assay": "1H NMR before and after irradiation with visible light (photorelease of 4AP)", "assay_type": "physicochemical", "settings": "after irradiation with visible light, from NMR signal integration", "description": "as §1\nAlthough at pH 7 the spectrum of the irradiated complex is very similar to that of the original complex, a diminished shoulder at 470 nm becomes evident. To determine the nature of the photoreaction, NMR spectra were taken before and after irradiation with visible light. […] After irradiation, this signal decreased, and two new signals appeared at lower fields: one corresponding to the free ligand (m3), and the other corresponding to the aquo-4AP complex (m2), indicating photorelease of the 4AP. These two latter signals integrated for 0.30 and 0.27 of the initial signal, which corresponds to a photoreaction of 60%."}, "[5]": {"assay": "UV-vis spectra of Ru(bpy)2(4AP)2 before and after photolysis; dark stability and recombination", "assay_type": "physicochemical", "description": "The photoproducts after exposure to light were Ru(bpy)2(4AP)(H2O) and free 4AP.\nas §1"}, "[6]": {"assay": "Quantum yield of the photoreaction", "assay_type": "physicochemical", "text": "as §2"}, "[7]": {"assay": "Photorelease of TzGly by localized irradiation", "assay_type": "physicochemical", "settings": "irradiation at 470 nm, light spot diameter <1 micron"}}, "note": "Like-named read-outs stand apart in the source and are kept apart here.", "data": [{"molecule": "NC(C(=O)O)c1nnn[nH]1", "note": "(racemic) [TzGly, (RS)-(tetrazol-5-yl)glycine]", "values": [{"measurement": "neuron spiking on addition via perfusion", "setting": "[1]", "result": "spiking of a mouse cortical neuron"}]}, {"molecule": "[Cl][Ru][Cl].c1ccc(-c2ccccn2)nc1.c1ccc(-c2ccccn2)nc1.c1ccc(-c2ccccn2)nc1", "note": "[Ru(bpy)3Cl2, reference compound]", "values": [{"measurement": "action potential activity on addition to saline, before irradiation", "setting": "[2]", "result": "without significant changes in activity"}, {"measurement": "action potential activity after light flash", "setting": "[2]; ~100 μM", "result": "after a short time the activity decreased to the basal level"}]}, {"molecule": "[Ru(bpy)2(4AP)2]Cl2", "values": [{"measurement": "redox potential of the couple RuIII/RuII", "setting": "[3]", "result": 0.76, "unit": "V versus Ag/AgCl"}, {"measurement": "action potential activity on addition to saline, before irradiation", "setting": "[2]", "result": "the activity remained unchanged"}, {"measurement": "action potential activity after light flash", "setting": "[2]; ~100 μM", "result": "sudden activity was recorded and it remained high after 300 s"}, {"measurement": "action potential activity after second light pulse", "setting": "[2]; ~100 μM, second light pulse at 6750 s", "result": "an even higher activity"}, {"measurement": "photoreaction (photorelease of 4AP)", "setting": "[4]", "result": 60, "unit": "%"}, {"measurement": "time without dark decomposition", "setting": "[5]; in the dark, UV-vis", "result": "more than 20 hours"}, {"measurement": "4AP recombination", "setting": "[5]; irradiated solution after 7 hours in the dark", "result": "less than 4%"}, {"measurement": "photoreaction yield φPR", "setting": "[6]; at 473 nm, estimate based on early experiments", "result": "~0.02"}]}, {"molecule": "[Ru(bpy)2(4AP)CH3CN]^2+", "values": [{"measurement": "photoreaction yield φPR", "setting": "[6]", "result": "~0.4"}]}, {"molecule": "[Ru(bpy)2(TzGly)(py)]Cl2", "values": [{"measurement": "photorelease on irradiation", "setting": "[7]", "result": "photoreleased TzGly"}]}]}
